In doi:10.1101/2021.12.13.472376v1 (bioRxiv, 2021):

Legend:
[1] = tested on: GBM; conditions: GBM patients treated with radiotherapy combined with TMZ; ref Stupp et al., 2005; cited from earlier work
[2] = Water solubility / dissolution of the peptide; type: physicochemical

water solubility [2] | dissolution of 1 mg peptide in 1000 μL 10% DMSO DPBS ([2]; 1 mg in 1000 μL 10% DMSO DPBS, only a mixture with loose precipitation obtained) | dissolution of 1 mg peptide in 200 μL normal saline or DPBS ([2]; 1 mg in 200 μL normal saline or DPBS) | Compound | median survival [1]
 |  |  | Cn1nnc2c(C(N)=O)ncn2c1=O [TMZ] | 14.6 months
poor | could not completely dissolve |  | RQIKIWFQNRRMKWGGTALDWSWLQTE [NBD] | 
good |  | completely dissolve | YLGASVPSPDPLEPTGGTALDWSWLQTE [MTL-NBD] | 
